Measured values reported in patent US6372779B1, “Anti-inflammatory compounds” (Ortho Pharmaceutical Corporation, priority 1997, dated 2002).

These molecules were tested against T1, human glucocorticoid receptor (hGR) (Homo sapiens, UniProt P04150) (assay: human glucocorticoid receptor binding assay (displacement of 3H triamcinolone acetonide)). Conditions: 1 μM.
T1 construct: made in house; host or cells: Sf21 insect cells infected with baculovirus hGR, OR IM9 lymphoblast cell line (endogenous hGR)
T1 sequence (P04150 1-777): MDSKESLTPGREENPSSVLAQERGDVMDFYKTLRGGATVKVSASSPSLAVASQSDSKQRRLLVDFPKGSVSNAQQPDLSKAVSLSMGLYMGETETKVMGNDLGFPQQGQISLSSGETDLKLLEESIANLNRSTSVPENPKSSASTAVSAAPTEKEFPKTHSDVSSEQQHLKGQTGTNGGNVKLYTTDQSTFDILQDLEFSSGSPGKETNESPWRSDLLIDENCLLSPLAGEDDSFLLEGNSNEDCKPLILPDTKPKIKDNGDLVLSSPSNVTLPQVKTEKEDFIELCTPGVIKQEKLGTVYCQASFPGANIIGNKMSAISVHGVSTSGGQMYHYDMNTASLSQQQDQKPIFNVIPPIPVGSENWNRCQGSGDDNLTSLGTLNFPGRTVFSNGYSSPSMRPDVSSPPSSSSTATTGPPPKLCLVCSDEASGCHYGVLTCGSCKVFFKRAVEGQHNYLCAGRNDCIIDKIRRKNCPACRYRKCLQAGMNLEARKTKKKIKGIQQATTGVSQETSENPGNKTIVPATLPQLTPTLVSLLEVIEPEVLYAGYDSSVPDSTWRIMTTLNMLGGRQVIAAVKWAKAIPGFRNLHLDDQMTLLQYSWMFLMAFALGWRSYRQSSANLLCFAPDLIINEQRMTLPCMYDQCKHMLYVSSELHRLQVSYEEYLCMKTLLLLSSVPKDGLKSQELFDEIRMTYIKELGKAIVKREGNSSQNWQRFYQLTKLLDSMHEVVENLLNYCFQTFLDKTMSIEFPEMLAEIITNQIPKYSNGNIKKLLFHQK
Experimental: A human glucocorticoid receptor binding assay was carried out to determine the extent to which the compounds of this invention have the ability to bind to human glucocorticoid receptors. This binding ability may be indicative of the antiinflammatory activity of the compound. The test was carried out as follows.
Human glucocorticoid receptors were prepared from either insect cells (Sf21) infected with baculovirus hGR or from a lymphoblast cell line which expresses high levels of endogenous hGR (IM9). The receptor binding reactions, with or without test compounds, were set up in 96-well microtiter plates which were previously siliconized with SIGMACOTE™, a chlorinated organopolysiloxane in heptane. The binding components, 3(H) Triamcinolone acetonide (TAA), glycerol/molybdate-containing buffer and unlabeled compounds were added to the wells using a combination of BIOMEK laboratory automation system and repeat pipettes. After four hours of incubation, the samples were precipitated with polyethylene glycol and filtered through Whatman GFIF paper using a TOMTEK cell harvester. The filter mate with 96 samples were bound to a solid-phase scintillant and directly counted in a BETAPLATE counter. […] The activity of test compounds to displace 3(H) TAA binding to hGR is also expressed as percent inhibition at 1 μM.

| Structure (SMILES) | hGR, value given as % (% inhibition) |
| --- | --- |
| COc1ccccc1CC(=O)NCC(c1ccccc1)C(c1ccccc1)c1ccccc1 (stereo not drawn) [Compound 5] | 62% |
| COc1ccccc1NC(=O)NCC(c1ccccc1)C(c1ccccc1)c1ccccc1 (stereo not drawn) [Compound 51] | 32% |
| COc1ccccc1CC(=O)NCC(c1ccccc1)C1c2ccccc2-c2ccccc21 (stereo not drawn) [Compound 67] | 23% |
| O=C(Cc1ccccc1Cl)NCC(c1ccccc1)C1c2ccccc2-c2ccccc21 (stereo not drawn) [Compound 68] | 46% |
| O=C(Cc1ccccc1C(F)(F)F)NCC(c1ccccc1)C1c2ccccc2-c2ccccc21 (stereo not drawn) [Compound 69] | 15% |
| COc1ccccc1CCC(=O)NCC(c1ccccc1)C1c2ccccc2-c2ccccc21 (stereo not drawn) [Compound 70] | 53% |
| Cc1ccc(C(=O)NCC(c2ccccc2)C2c3ccccc3-c3ccccc32)s1 (stereo not drawn) [Compound 72, N-(2-carbonyl-5-methylthiophene)-2-(9H-fluoreny-9-yl)-2-phenylethylamine] | 33% |
| CC(C)CC(=O)NCC1(c2ccccc2)CC1(c1ccccc1)c1ccccc1 (stereo not drawn) [Compound 85] | 68% |
| O=C(NCC1(c2ccccc2)CC1(c1ccccc1)c1ccccc1)Nc1ccccc1F (stereo not drawn) [Compound 93] | 11% |

Next, values leading:

| hGR, value given as % (% inhibition) | Structure (SMILES) |
| --- | --- |
| 13% | COc1ccccc1NC(=O)NCC1(c2ccccc2)CC1(c1ccccc1)c1ccccc1 (stereo not drawn) [Compound 94] |
| 4% | O=C(NCc1ccccc1)NCC1(c2ccccc2)CC1(c1ccccc1)c1ccccc1 (stereo not drawn) [Compound 95] |

What follows are molecules tested on human progesterone receptor (hPR) (assay: human progesterone receptor binding assay (displacement of 3H R5020 promegestone)). Conditions: not given.
Experimental: A human progesterone receptor binding assay was performed in order to determine selectivity of the compounds, as follows. Human progesterone receptors were prepared from either insect cells (SF21) infected with baculovirus hPR A, or from a breast cancer cell line, T47D, which expresses high levels of endogenous hPR. The receptor binding reactions, with or without test compounds, were set up in 96-well microtiter plates which were previously siliconized with SIGMACOTE. The binding components, 3(H) R5020 Promegestone, a high affinity ligand for the progesterone receptors, glycerollmolybdate-containing buffer and unlabeled compounds were added to the wells using a combination of BIOMEK laboratory automation system and repeat pipettes. After overnight incubation, the samples were precipitated with polyethylene glycol and filtered through Whatman GF/F paper using a TOMTEK cell harvester. The filter mate with 96 samples were bound to a solid-phase scintillant and directly counted in the BETAPLATE counter. Only those compounds that were active in the human glucocorticoid receptor assay set forth in Example 30 were used for progesterone receptor binding to determine cross-reactivity profiles, if any. The activity of test compounds to displace 3(H) R5020 binding to hPR is expressed as percent inhibition at the two concentrations, 10^−6 and 10^−5 Molar.

| hPR % inh 10 μM | Structure (SMILES) |
| --- | --- |
| 57% | Cc1ccc(C(=O)NCC(c2ccc(I)cc2)C(c2ccccc2)c2ccccc2)s1 (stereo not drawn) [Compound 180] |
| 41% | COc1ccccc1C(=O)NCC(c1ccc(I)cc1)C(c1ccccc1)c1ccccc1 (stereo not drawn) [Compound 181] |
| 15% | COc1cccc(C(=O)NCC(c2ccc(I)cc2)C(c2ccccc2)c2ccccc2)c1 (stereo not drawn) [Compound 182] |
| 42% | COc1cc(OC)cc(C(=O)NCC(c2ccc(I)cc2)C(c2ccccc2)c2ccccc2)c1 (stereo not drawn) [Compound 183] |
